Experimental data from patent US20220395490A1, “TREATMENT OF ARTHRITIS” (Inflazome Limited, priority 2019, published 2022).
Like-named read-outs stand apart in the source and are kept apart here.

Legend:
[1] = test system: MSU-induced knee inflammation (gout) in male Wistar rats; test: Prophylactic efficacy in rodent model of MSU-induced knee inflammation (gout); type: in vivo; conditions: for effect on pain associated with MSU-induced knee edema (mechanical allodynia, von Frey) / inhibition of the MSU-stimulated knee edema: 10 mg/kg once daily oral
Protocol: To determine the oral anti-inflammatory and anti-nociceptive efficacy of prophylactic treatment with the compound of formula (I) in a rodent model MSU-induced knee inflammation (gout) in male Wistar rats.
A. Preparation of MSU crystals: • 1. 4 g uric acid was dissolved in 800 ml 0.03 N NaOH and heated to 60° C. NaOH was added as required to maintain pH 8.9. The solution was stored overnight at 4-8° C. • 2. Crystals were filtered, washed and dried. • 3. Crystals were suspended in sterile saline just prior to use.
B. Efficacy Study: • 1. […] DAY −1. Baseline readings were taken
Baseline knee diameters were measured by digital caliper.
Baseline responses to mechanical allodynia, as measured by von Frey fibres, were recorded. • 3. DAY 0:
a. The rats were weighed and dosed by oral gavage with vehicle, prednisolone (10 mg/kg) or the compound of formula (I) (1, 3 or 10 mg/kg)
b. One hour after dosing, rats in Groups 1-5 were anesthetized and injected IA into the left knee with 2 mg MSU in 50 μl saline. • 4. DAY 1:
a. Rats were weighed and dosed as on DAY 0.
b. One hour after dosing, mechanical allodynia and knee diameters were measured and recorded. • 5. DAY 2:
b. One hour after dosing, mechanical allodynia and knee diameters were measured and recorded.
c. Four hours after final dosing, terminal bleeds were collected.

[2] = test system: MSU-induced knee inflammation (gout) in male Wistar rats; type: in vivo; conditions: for left knee diameter on DAY 3: vehicle group 15.0 mm; for response to mechanical allodynia on DAY 3: vehicle group 5.8; for reduction in the MSU-induced edema and pain: daily
Protocol: To determine the oral anti-inflammatory and anti-nociceptive efficacy of therapeutic treatment with the compound of formula (I) in a rodent model MSU-induced knee inflammation (gout) in male Wistar rats.
300 mg MSU crystal were suspended in 7.5 ml PBS (Sigma, Cat. D8662, lot. RNBG0405, exp. April 2019) to prepare a 40 mg/ml suspension. Material was kept in a sonicating water bath to maintain homogeneous suspension between injections. The rats were weighed.
The rats were anesthetized (SOP 1810), knees were shaved, and injected into the left knee with 50 μl MSU (2 mg) crystals using a 25 G needle fitted to a 1 ml syringe.
Group 1=PBS (Sigma, Cat. D8662, lot RNBG0405, exp. […]). Dosed at 1 ml/kg, PO.
Group 3=37 mg of the compound of formula (I) was dissolved in 3.7 ml PBS to prepare a 10 mg/ml solution. Dosed at 1 ml/kg, PO.
Test materials were made fresh daily. All rats were weighed and dosed by intraperitoneal injection or orally. Mechanical allodynia responses and knee diameters were recorded one hour post dosing.
On DAY 3, four hours after dosing, the rats were anesthetized and exsanguinated into pre-chilled K2 EDTA vacutainer tubes (Becton Dickinson, Cat. 367844, lot 6253682, exp. Jan. 31, 2018). The blood was processed to plasma, gently mixed and centrifuged at 4° C. 1800g for 10 minutes not later than 20 minutes from blood collection, which was stored in two 90 μl minimum volume and four 20 μl aliquots were prepared in labeled eppendorf tubes, and immediately stored frozen at −80° C. The carcasses were disposed of appropriately.

[3] = 1 mg/kg (Group 5) once daily oral, starting one hour prior to intra-articular 2 mg MSU
[4] = starting one hour prior to intra-articular 2 mg MSU

Compound: CC(C)n1ccc(S(=O)(=O)NC(=O)Nc2c3c(cc4c2CCC4)CCC3)n1 [compound of formula (I)]
- reduction of knee edema [1, 3]: 34%
- reduction of pain response (mechanical allodynia) [1, 3]: 66%
- efficacy of intermediate dose compared with high dose (10 mg/kg) ([1]; 3 mg/kg (Group 4) once daily oral): no significant difference
- effect on pain associated with MSU-induced knee edema (mechanical allodynia, von Frey) [1, 4]: complete blockade
- inhibition of the MSU-stimulated knee edema [1, 4]: 49%
- inhibition of the MSU-stimulated response across doses ([1]; once daily oral 1, 3, 10 mg/kg): significant dose-dependent inhibition
- effect on animal weight ([1]; sodium salt in PBS, once daily oral, 1, 3 or 10 mg/kg): no significant effect
- left knee diameter on DAY 3 ([2]; 10 mg/kg PO once daily Day 1-3 after 2 mg MSU, baseline 12.3 mm): 13.6 mm
- response to mechanical allodynia on DAY 3 ([2]; 10 mg/kg PO once daily Day 1-3 after 2 mg MSU, baseline 14.5): 12.5 grams of pressure
- reduction in the MSU-induced edema and pain ([2]; 10 mg/kg orally): significant reduction

Compound: Anakinra
- left knee diameter on DAY 3 ([2]; Anakinra 50 mg/kg IP once daily Day 1-3 after 2 mg MSU, baseline 12.4 mm): 14.0 mm
- response to mechanical allodynia on DAY 3 ([2]; Anakinra 50 mg/kg IP once daily Day 1-3 after 2 mg MSU, baseline 13.9): 9.0 grams of pressure
- reduction in the MSU-induced edema and pain ([2]; Anakinra 50 mg/kg by peritoneal injection): significant reduction
- effect on animal health ([2]; rat, in vivo, ip): no effect

Compound: C[C@]12C=CC(=O)C=C1CC[C@@H]1[C@@H]2[C@@H](O)C[C@@]2(C)[C@H]1CC[C@]2(O)C(=O)CO [prednisolone, reference compound]
- effect on pain associated with MSU-induced knee edema (mechanical allodynia, von Frey) [1, 4]: significant insensitivity to pain
- inhibition of the MSU-stimulated knee edema [1, 4]: 52%
- effect on animal weight ([1]; prednisolone 10 mg/kg once daily oral): no significant effect
